Experimental data from patent US20230047208A1, “RNA Splicing Modulation” (The General Hospital Corporation, priority 2020, published 2023).

Tested on: wildtype (WT) human fibroblast cell lines
Assay: Transcriptome-wide splicing by RNA sequencing (RNASeq), exon triplet PSI change;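 on Effect: six WT fibroblast lines treated seven days versus DMSO vehicle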;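 on T-PSI: T-PSI is average treated PSI after seven days of treatment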
Format: cell-based
Set-up: key to Effect: Exclusion; Inclusion; Unchanged
Text: FIG. 2A provides a representation of an exon triplet. Exon U is upstream of Exon X, which is upstream of Exon D. R1, R2 and R3 represent RNA sequencing (RNASeq) reads spanning the regions between two adjacent exons. UI1, I1X, XI2 and I2D are four regions flanking the four splice sites of the exon-triplet. Each flanking region consists of 25 exonic base pairs and 75 intronic base pairs.
FIG. 2B provides a volcano plot showing the ψ (PSI: Percent Spliced-In) changes in splicing after treatment with Compound (I). Each dot represents one of the 161,097 expressed exon triplets in human fibroblasts. The x axis represents the ψ changes after treatment and the y axis represents the False Discovery Rate (FDR) (log 10 transformed). […] The horizontal dashed line indicates an FDR of 0.1. The dots on the right side of the right vertical dashed line and above the horizontal dashed line represent the exon-triplets with an increase for Exon X inclusion (Δψ≥0.1 and FDR<0.1) while the dots on left side of the left vertical dashed line and above the horizontal dashed line represent an increase for Exon X exclusion (Δψ≤−0.1 and FDR<0.1). Black dots in-between the two vertical dashed lines represent exon-triplets unchanged from the treatment.
In some aspects, analysis is performed on data derived from the assay to measure the magnitude of splicing to determine the amount of exons spliced into an mRNA transcript that is produced in the presence of Compound (I) relative to the amount in the absence of Compound (I) or presence of a negative control. In a preferred aspect, the method utilized is calculation of change in Percent Spliced In (ΔPSI). […] The ΔPSI value is derived from the formula: […]
The values for “a” and “b” represent the number of reads supporting the probability for potential inclusion or exclusion of an exon in an RNA transcript. The “a” value is derived from the number of reads within an exon triplet covering, in 5′ to 3′ order: the last few bases (>1 nucleotide) of an upstream exon operably linked to the first few bases (>1 nucleotide) of a middle exon. The “b” value is derived from the number of reads within an exon triplet covering, in 5′ to 3′ order: the last few bases (>1 nucleotide) of the middle exon operably linked to the first few bases (>1 nucleotide) of a downstream exon. The number of reads will indicate whether the splice junction of a middle exon has been identified as potentially having a CNN Motif(s) by the CNN Model described herein, wherein the inclusion or exclusion of the middle exon may be modulated in the presence of Compound (I) to produce one or more mature RNA isoforms from the gene transcript. The value for “c” represents the number of reads supporting the exclusion of the middle exon.
The effect on splicing modulation and corresponding splice differences toward exon inclusion or exclusion was determined by counting the RNASeq reads covering two splice junctions of exon triplets (three consecutive exons: Exon U, Exon X, Exon D) and the corresponding intervening introns, then comparing the change in Percent Spliced In (ΔPSI or Δψ) of the middle exon (Exon X) after treatment (as shown in FIG. 2A)^52,53. 934 exon triplets were identified showing differential middle exon inclusion or exclusion in response to Compound (I) treatment. Of these, 254 were exon inclusion events (Δψ≥0.1 and FDR<0.1) and 680 were exon exclusion events (Δψ≤−0.1 and FDR<0.1) (as shown in FIG. 2B). […] The splicing results were evaluated by RT-PCR in independent replicate experiments, confirming all the calculated Δψ values. […]

[1] = NUTM2A-AS1 Exon 89067714-89067817
[2] = ORMDL1 Exon 190647740-190647849
[3] = OSBPL8 Exon 76853639-76853675, Intron1 76844760-76853638
[4] = OSBPL8 Exon 76853639-76853675, Intron1 76844769-76853638
[5] = OSER1-AS1 Exon 42846007-42846322
[6] = PACRGL Exon 20711306-20711396, Intron1 20706438-20711305
[7] = PACRGL Exon 20711306-20711396, Intron1 20709494-20711305

Compound: Clc1nc(NCc2ccncc2)c2cc[nH]c2n1 [Compound (I), 2-chloro-N-(pyridin-4-ylmethyl)-7H-pyrrolo[2,3-d]pyrimidin-4-amine]
- T-PSI (NUTF2 Exon 67881181-67881359): 0.104
- ΔPSI (NUTF2 Exon 67881181-67881359): −0.003
- Effect [1]: Exc
- T-PSI [1]: 0.100
- ΔPSI [1]: −0.120
- Effect (OARD1 Exon 41036580-41036692): Exc
- T-PSI (OARD1 Exon 41036580-41036692): 0.563
- ΔPSI (OARD1 Exon 41036580-41036692): −0.267
- Effect (OCRL Exon 128718321-128718344): Inc
- T-PSI (OCRL Exon 128718321-128718344): 0.364
- ΔPSI (OCRL Exon 128718321-128718344): 0.260
- Effect (ODF2 Exon 131231462-131231632): Exc
- T-PSI (ODF2 Exon 131231462-131231632): 0.872
- ΔPSI (ODF2 Exon 131231462-131231632): −0.102
- Effect (ODF2L Exon 86822127-86822285): Exc
- T-PSI (ODF2L Exon 86822127-86822285): 0.514
- ΔPSI (ODF2L Exon 86822127-86822285): −0.272
- Effect (OFD1 Exon 13781864-13781974): Inc
- T-PSI (OFD1 Exon 13781864-13781974): 0.981
- ΔPSI (OFD1 Exon 13781864-13781974): 0.131
- Effect (OPN3 Exon 241767722-241767881): Unc
- T-PSI (OPN3 Exon 241767722-241767881): 0.437
- ΔPSI (OPN3 Exon 241767722-241767881): −0.004
- Effect (OPTN Exon 13150138-13150289): Inc
- T-PSI (OPTN Exon 13150138-13150289): 0.387
- ΔPSI (OPTN Exon 13150138-13150289): 0.176
- Effect (OPTN Exon 13150962-13151015): Exc
- T-PSI (OPTN Exon 13150962-13151015): 0.121
- ΔPSI (OPTN Exon 13150962-13151015): −0.220
- Effect [2]: Exc
- T-PSI [2]: 0.407
- ΔPSI [2]: −0.295
- Effect (OS9 Exon 58113882-58114046): Exc
- T-PSI (OS9 Exon 58113882-58114046): 0.344
- ΔPSI (OS9 Exon 58113882-58114046): −0.181
- Effect [3]: Inc
- T-PSI [3]: 0.296
- ΔPSI [3]: 0.200
- Effect [4]: Inc
- T-PSI [4]: 0.269
- ΔPSI [4]: 0.191
- Effect [5]: Unc
- T-PSI [5]: 0.153
- ΔPSI [5]: 0.000
- Effect (P4HA2 Exon 131562390-131562914): Unc
- T-PSI (P4HA2 Exon 131562390-131562914): 0.155
- ΔPSI (P4HA2 Exon 131562390-131562914): −0.007
- Effect (P4HA2 Exon 131562625-131562914): Unc
- T-PSI (P4HA2 Exon 131562625-131562914): 0.160
- ΔPSI (P4HA2 Exon 131562625-131562914): −0.007
- Effect (PACRGL Exon 20709426-20709493): Exc
- T-PSI (PACRGL Exon 20709426-20709493): 0.666
- ΔPSI (PACRGL Exon 20709426-20709493): −0.179
- Effect [6]: Exc
- T-PSI [6]: 0.462
- ΔPSI [6]: −0.305
- Effect [7]: Exc
- T-PSI [7]: 0.563
- ΔPSI [7]: −0.242
- Effect (PACRGL Exon 20726431-20726511): Exc
- T-PSI (PACRGL Exon 20726431-20726511): 0.095
- ΔPSI (PACRGL Exon 20726431-20726511): −0.120
- Effect (PAM Exon 102309820-102310140): Exc
- T-PSI (PAM Exon 102309820-102310140): 0.478
- ΔPSI (PAM Exon 102309820-102310140): −0.123
- Effect (PARD3 Exon 34625127-34625171): Unc
- T-PSI (PARD3 Exon 34625127-34625171): 0.805
- ΔPSI (PARD3 Exon 34625127-34625171): −0.003
- Effect (PARD3 Exon 34739245-34739376): Exc
- T-PSI (PARD3 Exon 34739245-34739376): 0.584
- ΔPSI (PARD3 Exon 34739245-34739376): −0.165
- Effect (PARL Exon 183551512-183551613): Exc
- T-PSI (PARL Exon 183551512-183551613): 0.819
- ΔPSI (PARL Exon 183551512-183551613): −0.118
- Effect (PARP6 Exon 72543186-72543295): Inc
- T-PSI (PARP6 Exon 72543186-72543295): 0.902
